According to patent publication US6335332B1, “Barbituric acid derivatives with antimetastatic and antitumor activity” (Roche Diagnostics GmbH, priority 1997, dated 2002):
Where two headings read alike, the source gives them in different places.

Experiments:
[1] = molecular target: T1, MMP8 (human neutrophil collagenase) catalytic domain (Homo sapiens, UniProt P22894); test: Inhibition of MMP8 catalytic domain, fluorescent DNP-substrate degradation; type: biochemical
T1 construct: by means of the catalytic domain of MMP8
T1 sequence (P22894 100-262 limits assumed): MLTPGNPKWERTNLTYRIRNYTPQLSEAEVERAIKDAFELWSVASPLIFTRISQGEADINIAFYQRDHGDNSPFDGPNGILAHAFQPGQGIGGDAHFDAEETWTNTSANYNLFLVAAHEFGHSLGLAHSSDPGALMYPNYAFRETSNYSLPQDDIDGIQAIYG
Description: Said test provides for the determination via fluorescence of the inhibition of the degradation of a fluorescent substrate (DNP-Pro-Leu-Gly-Leu-Trp-Ala-D-Arg-[…], M1855 Bachem) by means of the catalytic domain of MMP8.
(§1) Reagents: 1) DNP-substrate=DNP-Pro-Leu-Gly-Leu-Trp-Ala-D-Arg-NH2 (M1855 Bachem), M. W. 977,l g/mol, concentration 25 μM in DMSO, 2) measurement buffer=50 mM TRIS/100 mM NaCl/10 mM CaCl2.2H2O, adjusted at pH 7 6 with hydrochloric acid. 3) Enzyme=catalytic domain of MMP8 ([…]), concentration 0.055 mg/ml in TRIS buffer. Substrate and enzyme are maintained at 0° C. with ice bath.
(§2) Total volume=1 ml of solution kept under stirring in a cuvette
(§3) It is measured the fluoresence at 346 nm both of the control solution (without inhibitor) and of the solution containing the inhibitor. The inhibition of the catalytic activity of MMP8 results in the decrease of the DNP-substrate bond's lysis, with related decrease of the fluorescence of the solution.
(§4) The percentage of inhibition is expressed by the following formula:
(§5) % Inhibition=100−(rel. unit/timewith inhibitor/rel. unit/timecontrol×100)
(§6) By repeating the experiment at different concentrations of inhibitor it is possible to determine the IC50 value.

[2] = molecular target: T2, MMP-9 (gelentinase 92 kD) (Homo sapiens, UniProt P14780); test: Inhibition of MMP-9 catalytic domain (same test as MMP8); type: biochemical
T2 construct: MMP-9 IC50; other: catalytic domain
T2 sequence (P14780 with tags, fused parts or gaps DEL217-390 limits assumed): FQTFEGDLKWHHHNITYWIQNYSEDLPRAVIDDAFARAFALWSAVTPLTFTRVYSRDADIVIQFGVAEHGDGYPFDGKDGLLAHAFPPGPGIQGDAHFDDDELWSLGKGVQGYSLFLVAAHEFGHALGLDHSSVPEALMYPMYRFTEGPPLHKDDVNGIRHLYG
Description: The compounds of the present invention have been tested in a pharmacological “in vitro” test of inhibition of MMP8 (human neutrophil collagenase). Said test provides for the determination via fluorescence of the inhibition of the degradation of a fluorescent substrate (DNP-Pro-Leu-Gly-Leu-Trp-Ala-D-Arg-[…], M1855 Bachem) by means of the catalytic domain of MMP8.
as §1, §2, §3, §4, §5, §6
The same test has been performed also on the MMP-9 (gelentinase 92 kD) and the selectivity between the two enzymes has been evaluated. Values of MMP-9/MMP-8 rate well below 1 are expected to give rise to less side toxic effects, since MMP-8 seems more involved in the regulation of vital functions that MMP-9 does.

[3] = system: human fibrosarcoma HT1080 cells; test: Test of chemoinvasion through Type IV collagen coated Transwell chambers; type: cell-based; conditions: HT-1080, concentration 10^-7 M
Description: The compounds of the present invention have also shown activity in a test of chemoinvasion. In the test of chemoinvasion the Costar Transwell chambers for cell culture (diameter: 6.5 mm: pore size: 8 μm) are coated with 100 μl of Type IV collagen (diluted solution 50 μg/ml, then evaporation overnight). With the same procedure the chambers are coated with a second layer of Type IV collagen (100 μl of solution at concentration 50 μg/ml). Before use, the chambers are rinsed twice with sterile water and incubated for about 1 hour at 37° C. in a serum-free medium (DMEM).
The human fibrosarcoma HT1080 cells are harvested by trypsin-EDTA treatment, washed with DMEM-10% FCS and incubated for at least 30 minutes at 37° C. in the same medium. The cells are then washed with serum-free DMEM and resuspended in serum-free DMEM added with 0.1% BSA (fraction V), counted and diluted to obtain a final density of 3×10^5 cell/ml.
Preincubated inserts are aspirated to remove the serum-free medium. […]
Incubated filters are then washed with PBS, the cells are fixed 15 min. in 4% paraformaldehyde, permeabilized in methanol (10 minutes, −20° C.) and stained with May-Grunwald-Giemsa. Cells which adhere to the top of the filters are removed with a cotton swab, filters are detached from the bottom of the chambers and analyzed with microscope to determine the number of cells on the lower side of the filters. […]

SMILES	IC50 [1] [nM]	IC50 [2] [nM]	inhibition at 0.1 µM [3] [%]	IC50 ([2]; catalytic domain, read-out: MMP-9 IC50) [nM]
CCCCCCCCC1(CC(=O)OCC)C(=O)NC(=O)NC1=O [Example 1, 5-octyl-5-(ethoxycarbonylmethyl)barbituric acid]	107	19.6	–	–
CCCCCCCCC1(CC(=O)NCCNC(C)=O)C(=O)NC(=O)NC1=O [Example 5, 5-octyl-5-(carboxymethyl)barbituric acid N′-acetyl N-ethylenediamide]	99	20	–	–
CCCCCCCCC1(CC(=O)N(CCNC(C)=O)Cc2ccccc2)C(=O)NC(=O)NC1=O [Example 6, 5-octyl-5-(carboxymethyl)barbituric acid N′-acetyl-N-benzyl-N-ethylenediamide]	68	14	73	–
CNC(=O)[C@H](Cc1ccccc1)NC(=O)[C@H](CC(C)C)[C@H](CSc1ccccc1)C(=O)NO [GI 129471, reference compound]	–	–	77	–
CNC(=O)[C@H](Cc1ccccc1)NC(=O)[C@H](CC(C)C)[C@H](CSc1cccs1)C(=O)NO [batimastat, reference compound]	–	–	–	25
